In general, pKi refers to the negative decadic logarithm of the Ki, by convention in mol/L.

Each structure is given as a SMILES string. pKi: −log10 of the molar value. Read-outs that look alike come from different tables or passages of the source.

The subject of assay [1] is head twitches induced by 5-HT2A/C receptor agonist DOI. Description: DOI-induced head twitches in Wistar rats. The format is in vivo. Particulars: hydrochloride salt p.o. 180 min before observation; DOI 2.5 mg/kg i.p.; male Wistar rats. As for the experimental part:
Biological Example 3. Effects of Compounds 1 and 17, on Head Twitches Induced by a 5-HT2A/C receptor agonist, 1-(2,5-dimethoxy-4-Iodophenyl)-2-aminopropane hydrochloride (DOI) in Wistar Rats
Drug-naive male Wistar rats (Charles River, Sulzfeld, Germany) were used. Rats were housed four per standard plastic cage and kept in a room with constant environmental conditions (22±1° C., relative humidity 60%, a 12:12 light-dark cycle with lights on at 07:00 a.m.). Animals were supplied by the breeder 2 weeks before the onset of behavioral procedures. During this time, the subjects were weighted and handled several times. The rats were also habituated to p.o. administration of tested compounds in form of hydrochloride salt by gavage dosing of distilled water (1-2 mL). Tap water and standard lab chow (Labofeed H, WPIK, Kcynia, Poland) was available ad libitum.
All tests were carried out in a sound-attenuated experimental room between 10:00 a.m. and 04:00 p.m. DOI-induced head twitches were scored as described by Millan et al. (2000). Rats were injected with DOI (2.5 mg/kg, i.p.) and placed in glass observation cages (25×25×40 cm, W×H×L) with wood chip bedding on the floor. Five minutes later, head twitches were counted for 5 min. (300 s) by a trained observer. […]
Total numbers of head twitches (n/5 min.) were analyzed with the aid of the Kruskal-Wallis analysis of variance (ANOVA). […]

The target in the next assay is human 5-HT2A receptor (Homo sapiens, UniProt P28223). As to the kind of experiment: 5-HT2A receptor binding assay ([3H]-ketanserin radioligand). As for the experimental part:
Preparation of Solutions of Test and Reference Compounds.
1 mM stock solutions of tested compounds were prepared in DMSO. Serial dilutions of compounds were prepared in 96-well microplate in assay buffers using automated pipetting system epMotion 5070 (Eppendorf). Each compound was tested in 10 concentrations from 1.0E-6 to 1.0E-11 M (final concentration).
5-HT2A Receptor Binding Assay.
Radioligand binding was performed using membranes from CHO K1 cells stably transfected with the human 5-HT2A receptor (PerkinElmer). All assays were carried out in duplicates. 50 μl working solution of the tested compounds, 50 μl [3H]-ketanserin (final concentration 1 nM) and 150 μl diluted membranes (7 μg protein per well) prepared in assay buffer (50 mM Tris, pH 7.4, 4 mM CaCl2, 0.1% ascorbic acid) were transferred to polypropylene 96-well microplate using 96-wells pipetting station Rainin Liquidator (MettlerToledo). Mianserin (10 μM) was used to define nonspecific binding. Microplate was covered with a sealing tape, mixed and incubated for 60 minutes at 27° C. The reaction was terminated by rapid filtration through GF/B filter mate presoaked with 0.5% polyethyleneimine for 30 minutes. Ten rapid washes with 200 μl 50 mM Tris buffer (4° C., pH 7.4) were performed using automated harvester system Harvester-96 MACH III FM (Tomtec). The filter mates were dried at 37° C. in forced air fan incubator and then solid scintilator MeltiLex was melted on filter mates at 90° C. for 5 minutes. Radioactivity was counted in MicroBeta2 scintillation counter (PerkinElmer). Data were fitted to a one-site curve-fitting equation with Prism 6 (GraphPad Software) and Ki values were estimated from the Cheng-Prusoff equation.

Chain of human 5-HT2A receptor (P28223 whole entry): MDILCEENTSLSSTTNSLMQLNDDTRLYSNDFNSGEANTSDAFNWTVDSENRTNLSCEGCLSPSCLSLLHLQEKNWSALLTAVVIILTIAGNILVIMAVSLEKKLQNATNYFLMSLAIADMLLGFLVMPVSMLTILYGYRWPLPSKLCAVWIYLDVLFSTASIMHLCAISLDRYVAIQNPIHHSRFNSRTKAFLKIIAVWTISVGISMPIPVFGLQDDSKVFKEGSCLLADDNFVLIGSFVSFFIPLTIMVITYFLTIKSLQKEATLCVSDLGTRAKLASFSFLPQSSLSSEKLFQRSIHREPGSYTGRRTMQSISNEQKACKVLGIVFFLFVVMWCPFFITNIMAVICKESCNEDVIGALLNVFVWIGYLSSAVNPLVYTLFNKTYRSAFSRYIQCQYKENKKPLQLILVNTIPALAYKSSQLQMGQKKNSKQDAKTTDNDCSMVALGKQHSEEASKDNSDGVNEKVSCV

Consider `FC(F)(F)c1nc2c(N3CCNCC3)cccc2n1Cc1ccccc1` [Compound 1, 1-benzyl-4-(piperazin-1-yl)-2-(trifluoromethyl)-1H-benzimidazole], for which, in assay [1], the “minimum effective dose (MED), attenuation of DOI-induced head twitches” value is recorded as 3.0 mg/kg. Moreover, the pKi at human 5-HT2A receptor (membranes from CHO K1 cells with human 5-HT2A receptor, [3H]-ketanserin 1 nM, read-out: 5-HT2A Ki) was 8.38.
As for `FC(F)(F)c1cc2c(N3CCNCC3)cccc2n1Cc1ccco1` [Compound 17, 1-(furan-2-ylmethyl)-4-(piperazin-1-yl)-2-(trifluoromethyl)-1H-indole], the “minimum effective dose (MED), attenuation of DOI-induced head twitches” value in assay [1] was 1.0 mg/kg. Also, the negative-log Ki (pKi) on human 5-HT2A receptor is 8.80.
